Test results reported in ChEMBL document CHEMBL1697781, “Assessment of the health effects of chemicals in humans: II. Construction of an adverse effects database for QSAR modeling” (Curr Drug Discov Technol, 2004).

Experiments:
Settings in all cases: human; call rule not given here
[1] = tested on: Hepatotoxicity; assay: FDA HLAED, gamma-glutamyl transferase (GGT) increase
[2] = tested on: Hepatotoxicity; assay: FDA HLAED, serum glutamic oxaloacetic transaminase (SGOT) increase
[3] = tested on: Hepatotoxicity; assay: FDA HLAED, alkaline phosphatase increase
[4] = tested on: Hepatotoxicity; assay: FDA HLAED, liver enzyme composite activity
[5] = tested on: Hepatotoxicity; assay: FDA HLAED, serum glutamic pyruvic transaminase (SGPT) increase
[6] = tested on: Hepatotoxicity; assay: FDA HLAED, lactate dehydrogenase (LDH) increase
For GGT Increase - Index Value in this document: reference of the scale not given here.
For LDH Increase - Index Value in this document: reference of the scale not given here.

SMILES	GGT Increase - Activity Score [1]	GGT Increase - Index Value [1]	GGT Increase - Number of Reports [1]	SGOT Increase - Activity Score [2]	SGOT Increase - Index Value [2]	SGOT Increase - Number of Reports [2]	Alkaline Phosphatase Increase - Activity Score [3]	Alkaline Phosphatase Increase - Index Value [3]	Alkaline Phosphatase Increase - Number of Reports [3]	Composite Activity - Active [4]	Composite Activity - Marginal [4]	Composite Activity - Score [4]	SGPT Increase - Activity Score [5]	SGPT Increase - Index Value [5]	SGPT Increase - Number of Reports [5]	LDH Increase - Activity Score [6]	LDH Increase - Index Value [6]	LDH Increase - Number of Reports [6]
Nc1nc(O)c2ncn(COC(CO)CO)c2n1 [GANCICLOVIR]	Inactive	0.8	< 4	Inactive	2.7	>= 4	Active	4.2	>= 4	1	0	Inactive	Inactive	2.3	>= 4	Inactive	1.9	>= 4
Nc1ccn([C@@H]2O[C@H](CO)[C@@H](O)C2(F)F)c(=O)n1 [GEMCITABINE]	Inactive	1.4	< 4	Inactive	1.4	< 4	Inactive	4.3	< 4	0	0	Inactive	Inactive	1.4	< 4	Inactive	1.4	< 4
Cc1ccc(C)c(OCCCC(C)(C)C(=O)O)c1 [GEMFIBROZIL]	Inactive	0	< 4	Inactive	0	< 4	Inactive	0	< 4	0	0	Inactive	Inactive	0	< 4	Inactive	0	< 4
CCC1=C(C)CN(C(=O)NCCc2ccc(S(=O)(=O)NC(=O)N[C@H]3CC[C@H](C)CC3)cc2)C1=O [GLIMEPIRIDE]	Inactive	1.2	< 4	Inactive	1.2	< 4	Inactive	1.2	< 4	0	0	Inactive	Inactive	1.2	< 4	Inactive	0	< 4
COc1ccc(Cl)cc1C(=O)NCCc1ccc(S(=O)(=O)NC(=O)NC2CCCCC2)cc1 [GLYBURIDE]	Inactive	0	< 4	Inactive	1.8	>= 4	Marginally Active	3.4	>= 4	0	1	Inactive	Inactive	2.2	>= 4	Inactive	0.8	>= 4
CN1C2CCCC1CC(NC(=O)c1nn(C)c3ccccc13)C2 (stereo unspecified) [GRANISETRON]	Inactive	0.2	< 4	Inactive	0.6	< 4	Inactive	1	>= 4	0	0	Inactive	Inactive	0.6	< 4	Inactive	0.2	< 4
N=C(N)N/N=C/c1c(Cl)cccc1Cl [GUANABENZ]	Inactive	0	< 4	Inactive	0.9	< 4	Inactive	0	< 4	0	0	Inactive	Inactive	0.6	< 4	Inactive	0.3	< 4
N=C(N)NC(=O)Cc1c(Cl)cccc1Cl [GUANFACINE]	Inactive	0	< 4	Inactive	1.3	>= 4	Inactive	1	< 4	0	0	Inactive	Inactive	0.3	< 4	Inactive	0.6	< 4
O=C1CN=C(c2ccccc2)c2cc(Cl)ccc2N1CC(F)(F)F [HALAZEPAM]	Inactive	0	< 4	Inactive	0	< 4	Inactive	0	< 4	0	0	Inactive	Inactive	0	< 4	Inactive	0	< 4
C[C@H]1C[C@H]2[C@@H]3C[C@H](F)C4=CC(=O)C=C[C@]4(C)[C@@]3(F)[C@@H](O)C[C@]2(C)[C@@]1(O)C(=O)CCl [HALOBETASOL]	Inactive	0	< 4	Inactive	0	< 4	Inactive	0	< 4	0	0	Inactive	Inactive	0	< 4	Inactive	0	< 4
CN1CC[C@]23c4c5ccc(O)c4O[C@H]2C(=O)CC[C@H]3[C@H]1C5 [HYDROMORPHONE]	Inactive	0	< 4	Inactive	0	< 4	Inactive	0	< 4	0	0	Inactive	Inactive	0	< 4	Inactive	0	< 4
CCCCCCCN(CC)CCCC(O)c1ccc(NS(C)(=O)=O)cc1 (stereo unspecified) [IBUTILIDE]	Inactive	0	< 4	Inactive	0	< 4	Inactive	0	< 4	0	0	Inactive	Inactive	0	< 4	Inactive	0	< 4
